The subject of test [1] is termites from the genus/specie Reticulitermes flavipes or Coptotermes formosanus. The test can be described thus: Termiticide activity (Reference Example 3). In kind it is in vivo. The settings on record: 20 termites per well; for DTD50 (number of days until 50% death): 0.5% compound on Whatman #1 filter paper, triplicate; for termite death (printed in DTD50 column): 0.5% compound on filter paper. How it is done: The tests, run in triplicate, are set up in three wells of a 6-well polystyrene microtiter plate (3 wells are empty). Four circles of either 3.2 cm Whatman #1 filter paper (cellulose) for the food controls and tests on compounds, or 3.2 cm Whatman GF/C glass microfibre filters (borosilicate glass) for the no-food controls are stacked in each well. For the food controls, 600 microliters of water are added to each wen. For the no-food controls 1200 microliters of water are added to those wells. If the test compounds are water soluble, they are added to the wells in 600 microliters of water to deliver 0.5% compound. Water insoluble test compounds are added to the wells in a solvent in which they are soluble to deliver 0.5% compound, the solvent is evaporated, and 600 microliters of water added per well.
Termiticidal activity for a compound is measured using termites from the genus/specie Reticulitermes flavipes or Coptotermes formosanus. The termites are added in groups of 20 per well. Every 34 days the termites are counted. The number of days until 50% death (DTD50) and 100% death for termites is determined. These values for termites in the wells containing test compounds are compared to the food and no-food controls to determine which compounds display termiticidal activity.
Various compounds were analyzed by the method of Reference Example 3.

The next test has as its system termites. The test can be described thus: Termiticide preference test (Reference Example 4). Format: in vivo. The settings on record: 100 termites per dish, about 7 days. How it is done: The test is performed in 100 millimeter Petri dishes into which 20 grams of washed sand and 2 milliliters of water are distributed. Six circles (three plain and thee treated with the compound of interest) of Whatman #1 filter paper (15 millimeters) are used as food. The treated circles are prepared by pipetting a small volume (approximately 25 microliters) of a solution of the compound in an appropriate solvent onto the filter paper circles, and then evaporating the solvent.
The filter paper circles are arranged in the dish in two rows using an alternating pattern of treated and untreated. One hundred termites are then added to the dish. The test is run for about 7 days to determine if any eating preference is seen between the treated and untreated filter paper circles.

Regarding `OCC1OC(O)(C(F)(F)F)C(O)C(O)C1O` (stereo not drawn), the “DTD50 (number of days until 50% death)” value in test [1] is reported as 41 days. Take `OCC1OC(F)C(F)C(O)C1O` (stereo not drawn): in test [1], the “DTD50 (number of days until 50% death)” value was 33 days. Same read-out and setting: next, `OCC1OC(OC2C(CO)OC(Oc3ccccc3)C(O)C2O)C(O)C(O)C1O` (stereo not drawn): 27 days. For the compound `CC(C)(C1CCC(O)CC1)C1CCC(O)CC1` (stereo not drawn) [CAS No. 80-04-6], in test [1], the “DTD50 (number of days until 50% death)” value was 62 days. Moreover, the “preference test result (treated vs untreated filter paper circles)” value in the test on termites is “passes the preference test”.

On to `CC(C)(c1ccc(O)cc1)c1ccc(O)cc1` [CAS No. 80-05-7], for which, in test [1], the “DTD50 (number of days until 50% death)” value turned out to be 42 days.

Take `OC[C@H]1O[C@@H](Oc2ccccc2)[C@H](O)[C@@H](O)[C@@H]1O` [CAS No. 1464-44-4, Phenyl-beta-D-glycoside]: the “DTD50 (number of days until 50% death)” value in test [1] was 15 days. Still for that read-out and setting: for `O=C(Nc1ccccc1)c1cccnc1` [CAS No. 1752-96-1] the value was 80 days; for `CC1(C)CC(O)CC(C)(C)N1O` [CAS No. 2226-96-2], 32 days; for `Cc1nc2cc(C)c(C)cc2[nH]1` [CAS No. 3363-56-2], 63 days. Turning to `CC(C)NCC(O)COc1cccc2ccccc12` (stereo not drawn) [CAS No. 4199-10-4], in test [1], the “DTD50 (number of days until 50% death)” value is recorded as 77 days. The same measure, in the same setting: for `COc1ccc(NC(=O)CC(C)=O)cc1` [CAS No. 5437-98-9] the value was 31 days.

Turning to `Cc1cc(C(C)(C)c2cc(C)c(O)c(C)c2)cc(C)c1O` [CAS No. 5613-46-7], the “termite death (printed in DTD50 column)” value in test [1] (at day 73) is 42% atday 73. Regarding `CC(=O)c1ccc(-n2ccnc2)cc1` [CAS No. 10041-06-2], the “DTD50 (number of days until 50% death)” value in test [1] is on record as 35 days. Same read-out and setting: for `CC(=O)Oc1ccc(C(C)(C)c2ccc(OC(C)=O)cc2)cc1` [CAS No. 10192-62-8] the value was 70 days; for `COC(=O)C[S+]([O-])c1ccccc1` (stereo not drawn) [CAS No. 14090-83-6], 35 days. The same measure, in the same setting: for `O=c1c2ccccc2nnn1O` [CAS No. 28230-32-2] the value was 80 days. On the same count and under the same terms, for `NC1CCN(Cc2ccccc2)CC1` [CAS No. 50541-93-0] the value was 59 days.

Consider `O=[N+]([O-])c1ccc(OC2OC(CO)C(OC3OC(CO)C(O)C(O)C3O)C(O)C2F)c([N+](=O)[O-])c1` (stereo not drawn) [CAS No. 154862-23-4], for which the “DTD50 (number of days until 50% death)” value in test [1] came out at 66 days.

`O=S(=O)(NCCc1c[nH]cn1)c1ccccc1` [CAS No. 195052-64-3]: the “termite death (printed in DTD50 column)” value in test [1] (by day 53) turned out to be 48%by day53. For the compound `O=[N+]([O-])c1ccc(OC2OC(CO)C(OC3OC(CO)C(OC4OC(CO)C(O)C(O)C4O)C(O)C3O)C(O)C2F)c([N+](=O)[O-])c1` (stereo not drawn) [CAS No. 213193-76-1], in test [1], the “DTD50 (number of days until 50% death)” value turned out to be 60 days.

Values taken from patent US7157078B2, “Devices and methods for eliminating termite colonies” (The University of Florida Research Foundation, Inc., priority 2001, dated 2007).
